Assay results: publication PMC3764026, “Adaptive Evolution of Escherichia coli to an α-Peptide/β-Peptoid Peptidomimetic Induces Stable Resistance” (PLoS ONE, 2013)
Converted amounts (≈) assume the structure as drawn. Where two headings read alike, the source gives them in different places. Positions of bridges follow the written chain, without caps; N, C: chain ends. Non-standard residues stand in square brackets, D forms with d. Residues, ends and D or L forms follow the SMILES beside them. *: point of attachment. X1 = CC[C@H](C)CCCCC(=O)*; Dab = NCC[C@H](N)C(=O)O

How the values were obtained:
[1] = system: E. coli ATCC 25922 lineages adapted to peptidomimetic 1; type: cell-based, Escherichia coli; details: for cross-resistance to conventional antibiotics: any of the lineages (peptidomimetic- and polymyxin B-exposed), population MIC, data not shown
Experimental: (§1) Continuous selection of resistance was performed for peptidomimetic 1 (Figure 1) and for the clinically relevant natural antimicrobial peptide, polymyxin B. A bacterial suspension of a single colony of E. coli ATCC 25922 was re-inoculated (10 µl) five times in unsupplemented MHB (990 µl). It was then re-inoculated in MHB supplemented with peptidomimetic 1 (ten lineages) or polymyxin B (ten lineages), and after ten re-inoculations at constant peptidomimetic or polymyxin B concentration, the concentrations were doubled. […] Four lineages grown in MHB with MilliQ water were included as control. Re-inoculations were performed twice a day, but were reduced to once a day when growth was slower as assessed by turbidity of the cultures. The total number of passages (supplemented with peptidomimetic/AMP) was 77 times equivalent to approx. 500 generations. For each increase in concentration the lineages were preserved as freezing stocks. Ten colony isolates were randomly selected from each lineage population at 32×MIC and preserved as freezing stocks.
(§2) MIC was determined by using the micro-dilution method according to guidelines of the Clinical and Laboratory Standards Institute. Peptidomimetic 1 and erythromycin 1∶2 serial dilutions were prepared from 1024 µg/mL stock solutions to give a final range of 512-0.5 µg/mL in the wells. Ampicillin 1∶2 serial dilutions were prepared from a 256 µg/mL stock solution to give a final range of 128-0.13 µg/mL in the wells. Polymyxin B and gentamicin 1∶2 serial dilutions were prepared from a 64 µg/mL stock solution to give a final range of 32-0.03 µg/mL in the wells. Also, 1∶2 serial dilutions of the AMPs KR-12, IsCTp, melittin and PEP-1-K were prepared from 64 µg/mL stock solutions to give a final range of 32-0.03 µg/mL in the wells; however this was performed in 1% peptone instead of in MHB since activity was drastically diminished in the latter (not shown).
(§3) The population lineages were tested for their susceptibility towards peptidomimetic 1, polymyxin B, gentamicin and ampicillin. Single-culture isolates selected from these populations were additionally tested against peptidomimetic 1, polymyxin B, erythromycin and the five reference AMPs. To estimate the level of cross-resistance to closely related peptidomimetics, MIC determinations were performed for peptidomimetics 2 and 3 (Figure 1) towards selected isolates. The bacterial suspensions were grown overnight in MHB at 37°C for determination of the population MIC, or individual isolates were grown overnight on non-selective BHI agar at 37°C. […] In all experiments, bacterial cells were suspended in 0.9% saline to give a turbidity of 0.13 at OD546 (approximately 1×10^8 CFU/mL) and diluted in MHB pH 7.4 to a final concentration of 5×10^5 CFU/mL in each well. Polypropylene plates (Nunc 442587) were used to minimize peptide binding, and the incubation time was 18–20 hours at 37°C. Incubation time was additionally extended up to 44 hours for the individual isolates due to a potential effect of growth rate on the outcome, but no effect was seen of this (not shown). MIC was found in a minimum of two technical (population MIC) or biological (isolate MIC) replicates as the lowest concentration of the AMP or antibiotic where no visible growth was observed.
(§4) Frozen stocks were reconditioned in unsupplemented MHB media for five transfers (∼35 generations) at 37°C. The heritability of resistance was established through MIC determination of bacterial populations as described above.

[2] = system: isolates from peptidomimetic 1-exposed E. coli ATCC 25922 lineages; details: for change in MIC following acquisition of peptidomimetic resistance: isolate 2–7 vs wild type, biological duplicates; for MIC: two biological replicates; for cross-resistance: MIC as compared to the wild type: all twenty isolates from lineages no. 2 and 5, KR-12, IsCTp, melittin, PEP-1-K in 1% peptone instead of MHB
Experimental: as §1
MIC was determined by using the micro-dilution method according to guidelines of the Clinical and Laboratory Standards Institute. Peptidomimetic 1 and erythromycin 1∶2 serial dilutions were prepared from 1024 µg/mL stock solutions to give a final range of 512-0.5 µg/mL in the wells. Ampicillin 1∶2 serial dilutions were prepared from a 256 µg/mL stock solution to give a final range of 128-0.13 µg/mL in the wells. Polymyxin B and gentamicin 1∶2 serial dilutions were prepared from a 64 µg/mL stock solution to give a final range of 32-0.03 µg/mL in the wells.
as §3, with “Incubation time was additionally extended up to 44 hours for the individual isolates due to a potential effect of growth rate on the outcome, but no effect was seen of this (not shown).” left out

[3] = system: Escherichia coli ATCC 25922; type: cell-based; details: wild-type E. coli ATCC 25922; MHB pH 7.4, 5×10^5 CFU/mL, 37°C, 18–20 h
Experimental: All experiments were performed with Escherichia coli ATCC 25922. Stock cultures of the wild-type strain and lineage isolates were stored at –80°C in 4% (w/v) glycerol, 0.5% (w/v) glucose, 2% (w/v) skimmed milk powder and 3% (w/v) tryptone soy powder. Lineage populations were frozen at –80°C in 50% (w/v) glycerol. All experiments were performed at 37°C. Experiments were carried out in cation-adjusted Mueller Hinton II broth (MHB) (Becton Dickinson 212322) adjusted to pH 7.4 or in 1% (w/v) peptone (Becton Dickinson 211677) for MIC determination of natural AMPs. Brain Heart Infusion (BHI) (CM1135) with agar (VWR 20768.292) 1.5% as gelling agent was used throughout for colony plating.
as §2
The population lineages were tested for their susceptibility towards peptidomimetic 1, polymyxin B, gentamicin and ampicillin. Single-culture isolates selected from these populations were additionally tested against peptidomimetic 1, polymyxin B, erythromycin and the five reference AMPs. To estimate the level of cross-resistance to closely related peptidomimetics, MIC determinations were performed for peptidomimetics 2 and 3 (Figure 1) towards selected isolates. […]

[4] = system: E. coli ATCC 25922 control lineages; type: cell-based, Escherichia coli; details: two technical duplicates
Experimental: as §1, §2, §3, §4

[5] = system: E. coli ATCC 25922 lineages adapted to polymyxin B; type: cell-based, Escherichia coli; details: for MIC against polymyxin after 35 generations w/o selection / MIC against polymyxin after selection: two technical duplicates; for MIC against polymyxin after selection: MHB pH 7.4, 37°C, 18–20 h
Experimental: as §1, §2, §3, §4

[6] = system: Escherichia coli ATCC 25922; test: Continuous selection experiment; type: cell-based
Experimental: as §1

For `CC1(C)S[C@@H]2[C@H](NC(=O)[C@H](N)c3ccccc3)C(=O)N2[C@H]1C(=O)O` [ampicillin, reference compound], the “cross-resistance to conventional antibiotics” value [1] was “No cross-resistance”.

With `CC[C@H]1OC(=O)[C@H](C)[C@@H](O[C@H]2C[C@@](C)(OC)[C@@H](O)[C@H](C)O2)[C@H](C)[C@@H](O[C@@H]2O[C@H](C)C[C@H](N(C)C)[C@H]2O)[C@](C)(O)C[C@@H](C)C(=O)[C@H](C)[C@@H](O)[C@]1(C)O` [erythromycin, reference compound] the “change in susceptibility as compared to the wild type” value ([2]; the five highly resistant isolates of lineage no. 2 carrying the macrolide transporter mutation, not shown) was “No change”.

With `CNC(C)C1CCC(N)C(OC2C(N)CC(N)C(OC3OCC(C)(O)C(NC)C3O)C2O)O1` (stereo not drawn) [gentamicin, reference compound] the “cross-resistance to conventional antibiotics” value [1] was “No cross-resistance”.

With `OO` [hydrogen peroxide, reference compound] the “change in MIC following acquisition of peptidomimetic resistance” value [2] was “No changes”.

For `CC(=O)N[C@@H](CCCCN)C(=O)N(CCC(=O)N[C@@H](CCCCN)C(=O)N(CCC(=O)N[C@@H](CCCCN)C(=O)N(CCC(=O)N[C@@H](CCCCN)C(=O)N(CCC(=O)N[C@@H](CCCCN)C(=O)N(CCC(=O)N[C@@H](CCCCN)C(=O)N(CCC(=O)N[C@@H](CCCCN)C(=O)N(CCC(=O)N[C@@H](CCCCN)C(=O)N(CCC(N)=O)[C@@H](C)c1ccccc1)[C@@H](C)c1ccccc1)[C@@H](C)c1ccccc1)[C@@H](C)c1ccccc1)[C@@H](C)c1ccccc1)[C@@H](C)c1ccccc1)[C@@H](C)c1ccccc1)[C@@H](C)c1ccccc1` [peptidomimetic 2], the “wt MIC” value [3] was 64 µg/mL, the MIC ([2]; isolates 2–4 and 2–6 (shared values), mean when results varied) was 512 µg/mL (≈ 206 µM) and the MIC ([2]; isolates 2–7, 2–9 and 2–10 (shared values), mean when results varied) was 512 µg/mL (≈ 206 µM). It also gave an MIC ([2]; six of the ten isolates from lineage no. 5 (data point shared with wild type)) of 64 µg/mL (≈ 25.7 µM).

For `CC[C@H](C)CCCCC(=O)N[C@@H](CCN)C(=O)N[C@H](C(=O)N[C@@H](CCN)C(=O)N[C@H]1CCNC(=O)[C@H]([C@@H](C)O)NC(=O)[C@H](CCN)NC(=O)[C@H](CCN)NC(=O)[C@H](CC(C)C)NC(=O)[C@@H](Cc2ccccc2)NC(=O)[C@H](CCN)NC1=O)[C@@H](C)O` [polymyxin B, Polymyxin B] (X1-[Dab]T[Dab][Dab][Dab][dF]L[Dab][Dab]T; lactam 4-C (inferred); N-terminus assumed), the “MIC against polymyxin after 35 generations w/o selection” value ([4]; Control 1 lineage (MilliQ water)) was 0.5 µg/mL (≈ 0.415 µM), the “MIC against polymyxin after selection” value ([4]; Control 1 lineage (MilliQ water, no polymyxin)) was 8 µg/mL (≈ 6.65 µM) and the “MIC against polymyxin after 35 generations w/o selection” value ([4]; Control 2 lineage (MilliQ water)) was 0.5 to 1 µg/mL. The “MIC against polymyxin after selection” value ([4]; Control 2 lineage (MilliQ water, no polymyxin)) was 1 µg/mL (≈ 0.831 µM), the “cross-resistance after removal of the selection pressure” value ([1]; peptidomimetic-exposed lineages, ~35 generations unsupplemented, became similar to controls, not shown) was “lost” and the “MIC against polymyxin after 35 generations w/o selection” value ([5]; polymyxin B-exposed lineage 2, five passages in unsupplemented MHB) was 32 µg/mL (≈ 26.6 µM). The “MIC against polymyxin after selection” value ([5]; polymyxin B-exposed lineage 2, population outgrown at 32×wt MIC) was 32 µg/mL (≈ 26.6 µM), the “MIC against polymyxin after 35 generations w/o selection” value ([5]; polymyxin B-exposed lineage 3, five passages in unsupplemented MHB) was 32 µg/mL (≈ 26.6 µM) and the “MIC against polymyxin after selection” value ([5]; polymyxin B-exposed lineage 3, population outgrown at 32×wt MIC) was 32 µg/mL (≈ 26.6 µM). The “MIC against polymyxin after 35 generations w/o selection” value ([5]; polymyxin B-exposed lineage 4, five passages in unsupplemented MHB) was 32 µg/mL (≈ 26.6 µM), the “MIC against polymyxin after selection” value ([5]; polymyxin B-exposed lineage 4, population outgrown at 32×wt MIC) was 32 µg/mL (≈ 26.6 µM) and the “MIC against polymyxin after 35 generations w/o selection” value ([5]; polymyxin B-exposed lineage 5, five passages in unsupplemented MHB) was 32 µg/mL (≈ 26.6 µM). For the same compound, the “MIC against polymyxin after selection” value ([5]; polymyxin B-exposed lineage 5, population outgrown at 32×wt MIC) was 32 µg/mL (≈ 26.6 µM), the “MIC against polymyxin after 35 generations w/o selection” value ([5]; polymyxin B-exposed lineage 6, five passages in unsupplemented MHB) was 32 µg/mL (≈ 26.6 µM) and the “MIC against polymyxin after selection” value ([5]; polymyxin B-exposed lineage 6, population outgrown at 32×wt MIC) was 32 µg/mL (≈ 26.6 µM). For the same compound, the “MIC against polymyxin after 35 generations w/o selection” value ([5]; polymyxin B-exposed lineage 8, five passages in unsupplemented MHB) was 32 µg/mL (≈ 26.6 µM), the “MIC against polymyxin after selection” value ([5]; polymyxin B-exposed lineage 8, population outgrown at 32×wt MIC) was 32 µg/mL (≈ 26.6 µM) and the “MIC against polymyxin after 35 generations w/o selection” value ([5]; polymyxin B-exposed lineage 9, five passages in unsupplemented MHB) was 32 µg/mL (≈ 26.6 µM). The “MIC against polymyxin after selection” value ([5]; polymyxin B-exposed lineage 9, population outgrown at 32×wt MIC) was 32 µg/mL (≈ 26.6 µM), the “MIC against polymyxin after 35 generations w/o selection” value ([5]; polymyxin B-exposed lineage 10, five passages in unsupplemented MHB) was 32 µg/mL (≈ 26.6 µM) and the “MIC against polymyxin after selection” value ([5]; polymyxin B-exposed lineage 10, population outgrown at 32×wt MIC) was 32 µg/mL (≈ 26.6 µM). The “increase in MIC as compared to the wild-type strain” value ([5]; the eight polymyxin B-exposed lineages after selection) was 32 fold, the “cross-resistance: MIC as compared to the wild type” value ([2]; not shown) was “did not find increased MIC values” and the “lineages that eventually grew at 32×wt MIC” value ([6]; ten lineages per agent, from 1/16×wt MIC, doubled stepwise, 77 inoculations, approx. 500 generations, 32×wt MIC = 256 µg/mL peptidomimetic 1, 32 µg/mL polymyxin B) was “eight out of ten”. For the same compound, the “growth of unexposed control lineages at 4×wt MIC” value ([6]; two controls per agent, 32 µg/mL peptidomimetic 1 or 4 µg/mL polymyxin B) was “one of the two controls”.

For lysozyme, the “change in MIC following acquisition of peptidomimetic resistance” value [2] was “No changes”.

With melittin [melitin, reference compound] the “cross-resistance: MIC as compared to the wild type” value ([2]; not shown) was “did not find increased MIC values”.

With protamine [reference compound] the “cross-resistance: MIC as compared to the wild type” value ([2]; not shown) was “did not find increased MIC values”.
